Values quoted from earlier work in US20220080020A1, “COMPOSITIONS AND METHODS FOR REDUCING THE TRAN[…] […] USING AN ORAL […] SYSTEM” (priority 2020, published 2022).

Tests used:
ACE2 receptor = details: prevents covid 19 attachment
[1] = children, xylitol chewing gum or oral solution
[2] = aqueous solution

Structure (SMILES) | competition with the ACE2 receptor (ACE2 receptor) | reduction in the incidence of otitis [1] | solubility (saturated solution) [2]
Cc1cc(O)c2c(c1)C(=O)c1cc(O)cc(O)c1C2=O [Emodin] | compete with the ACE2 receptor |  | 
OC[C@@H](O)[C@H](O)[C@@H](O)CO [xylitol] |  | between a thirty and forty-percent reduction | up to 64.2 grams per 100 ml of solution
